Measurements taken from patent US20110028559A1, “SUBSTITUTED FLUOROETHYL UREAS AS ALPHA 2 ADRENERGIC AGENTS” (priority 2007, published 2011).

Target: T1, Alpha 2C (Homo sapiens, UniProt P18825)
T1 sequence (P18825 1-462): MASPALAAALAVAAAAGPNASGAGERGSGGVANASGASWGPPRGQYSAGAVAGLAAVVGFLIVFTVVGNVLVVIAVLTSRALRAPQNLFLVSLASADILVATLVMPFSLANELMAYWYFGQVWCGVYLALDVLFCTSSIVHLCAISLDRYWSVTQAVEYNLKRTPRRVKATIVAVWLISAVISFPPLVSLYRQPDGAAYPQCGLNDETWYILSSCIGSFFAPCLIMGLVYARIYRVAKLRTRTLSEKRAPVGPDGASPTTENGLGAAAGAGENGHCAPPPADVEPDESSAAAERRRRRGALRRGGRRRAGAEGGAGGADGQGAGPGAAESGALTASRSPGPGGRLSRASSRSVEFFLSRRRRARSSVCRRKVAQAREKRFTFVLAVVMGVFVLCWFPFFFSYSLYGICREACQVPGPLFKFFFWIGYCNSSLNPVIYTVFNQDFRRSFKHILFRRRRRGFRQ
Assay: Alpha 2C adrenergic receptor functional activity (procedure of U.S. 60/911,442)
Type: cell-based
Text: U.S. Provisional Patent Application Ser. No. 60/911,442, filed Apr. 12, 2007, describes the procedure used to obtain the data in the table below. That procedure is incorporated by reference herein.

In the case of `CCC[C@@H]1CCCC[C@H]1NC(=O)NCCF` [1-(2-Fluoro-ethyl)-3-(2R-propyl-1R-cyclohexyl)-urea], the “Alpha 2C EC50” value was “not active”.
